Results as given in patent US20240000795A1, “METHODS AND COMPOSITIONS RELATING TO CONTROLLING PSYCHEDELIC EFFECTS WITH SEROTONIN RECEPTOR MODULATORS” (Terran Biosciences Inc., priority 2022, published 2024).
“Also recorded” adds a separate entry of the source.

Key:
[1] = biological target: T1, 5-HT2A receptors (Mus musculus, UniProt P35363); experiment: Psilocybin-induced head twitch response in mice, 5-HT2A antagonist given i.v. after psilocybin; type: in vivo, C57BL/6J mice; design: widely used to explore the effect of treatments on 5-HT2A receptors in vivo; from tissue; host or cells: whole living male C57BL/6J mice (behavioural read-out); settings: for head-twitch response (cumulative head-twitches): psilocybin 2 mg/kg i.p., monitored until 40 min after agonist dosing; for Result (Psilocybin Combinations tested, summary): summary of Examples 1-17
Text: (§1) See, Keller and Umbreit, Science, 1956, 124: 723). […] The head-shake response is elicited by a wide variety of known hallucinogens such as LSD, psilocybin, psilocin, N,N-dimethyltryptamine (DMT), and mescaline as well as serotonin-releasing agents and direct 5-HT2 agonists. See, Canal and Morgan, Drug Test Anal., 2012, 4, 556-576 2012. 2,5-dimethoxy-4-iodoamphetamine (DOI) has also been reported to elicit head shakes in rats (see Amt and Hyttel Eur. J. Pharmacol., 1989, 161:45; also see Kennett et al., Br. J. Pharmacol., 1994, 111: 797-802) and head-twitches in mice (see Darmani et al., Pharmacol. Biochem. Behav., 1990, 36: […]), both of which were blocked by administration of the fairly selective 5-HT2A antagonist ketanserin. Later studies have confirmed 5-HT2A receptors are the primary, direct mediators of the response and that the headshake response in rats is essentially the same as head-twitches in mice, at least in regards to similarity in appearance and 5-HT2A receptor dependence. See, Canal and Morgan, Drug Test Anal., 2012, 4, 556-576 2012.
Male C57BL/6J mice (approximately 25 g) was group housed in stock room B20D of the Saretius animal at the University of Reading. Animals was maintained under a 12 h light/dark cycle, at 23° C. with humidity controlled
(§2) At T=−60 min, C57BL/6J mice were individually housed into transparent observation cages with bedding removed and left to habituate. At T=−3 min, mice were placed into heated cages at 40° C. At T=0 h, groups of 3 mice were dosed intraperitoneally with psilocybin (2 mg/kg). Following dosing, mice were replaced into the heated cages and head-twitch responses continuously scored for 7 min. After 7 min, mice were intravenously dosed via the lateral tail vein with either vehicle 1 (saline) or volinanserin 1 mg/kg in 5 mL/kg dosing volumes. Mice were replaced into the observation cages and head twitch behavior were monitored until 40 min after agonist dosing. Cumulative head-twitches were measured every 2 minutes until 40 minutes after agonist dosing.
as §2, with “min. […]” for “min. After 7 min, mice were intravenously dosed via the lateral tail vein with either vehicle 1 (saline) or volinanserin 1 mg/kg in 5 mL/kg dosing volumes.”, “behavior was” for “behavior were”, “Cumulative head-twitch behavior was” for “Cumulative head-twitches were”
as §2, with “min. […]” for “min. After 7 min, mice were intravenously dosed via the lateral tail vein with either vehicle 1 (saline) or volinanserin 1 mg/kg in 5 mL/kg dosing volumes.”, “behavior was” for “behavior were”, “Cumulative head-twitch behavior was” for “Cumulative head-twitches were”
as §2, with “min. […]” for “min. After 7 min, mice were intravenously dosed via the lateral tail vein with either vehicle 1 (saline) or volinanserin 1 mg/kg in 5 mL/kg dosing volumes.”, “behavior was” for “behavior were”, “Cumulative head-twitch behavior was” for “Cumulative head-twitches were”

[2] = biological target: T1, 5-HT2A receptors; experiment: LSD-induced head twitch response in mice, 5-HT2A antagonist given i.v. after LSD; type: in vivo, C57BL/6J mice; design: widely used to explore the effect of treatments on 5-HT2A receptors in vivo; from tissue; host or cells: whole living male C57BL/6J mice (behavioural read-out); settings: for head-twitch response (cumulative head-twitches): LSD 0.32 mg/kg i.p., monitored until 40 min after agonist dosing; for Result (LSD Combinations tested, summary): summary of Examples 1-17, antagonist administered after LSD
Text: as §1
Male C57BL/6J mice (approximately 25 g) was group housed in stock room B20D of the Saretius animal at the University of Reading. […]
as §2, with “At T=−2” for “At T=−3”, “with LSD (0.32” for “with psilocybin (2”, “for 8” for “for 7”, “After 8” for “After 7”, “Cumulative head-twitch behavior was” for “Cumulative head-twitches were”
At T=−60 min, C57BL/6J mice were individually housed into transparent observation cages with bedding removed and left to habituate. At T=−2 min, mice were placed into heated cages at 40° C. At T=0 h, groups of 3 mice were dosed intraperitoneally with LSD (0.32 mg/kg).

[3] = background; compared with a therapy session of up to several hours; cited from earlier work
[4] = tested on: psilocybin induced head twitches in mice; settings: psilocybin 2 mg/kg i.p.; quetiapine 1 mg/kg i.v. after T=7 minutes; cumulative head twitches until 40 minutes
Procedure: Mice were dosed intraperitoneally with psilocybin (2 mg/kg) and head-twitch responses were continuously scored for 7 minutes. […] Cumulative head-twitch behavior was measured every 2 minutes until 40 minutes after agonist dosing.

[5] = biological target: T2, 5-HT2A receptors (Rattus norvegicus, UniProt P14842); settings: rats; 2,5-dimethoxy-4-iodoamphetamine (DOI); cited from earlier work
T2 construct: has also been reported to elicit head shakes in rats; host or cells: living rats (cited studies)

[6] = biological target: T1, 5-HT2A receptors; design: head-twitches in mice (see Darmani et al., Pharmacol. Biochem. Behav., 1990); host or cells: living mice (cited study); settings: mice; 2,5-dimethoxy-4-iodoamphetamine (DOI); cited from earlier work
[7] = antagonist 1 mg/kg i.v. after 7 min
[8] = antagonist administered after psilocybin
[9] = antagonist 1 mg/kg i.v. after 8 min
[10] = antagonist 4 mg/kg i.v. after 7 min

T1 sequence (P35363 whole entry): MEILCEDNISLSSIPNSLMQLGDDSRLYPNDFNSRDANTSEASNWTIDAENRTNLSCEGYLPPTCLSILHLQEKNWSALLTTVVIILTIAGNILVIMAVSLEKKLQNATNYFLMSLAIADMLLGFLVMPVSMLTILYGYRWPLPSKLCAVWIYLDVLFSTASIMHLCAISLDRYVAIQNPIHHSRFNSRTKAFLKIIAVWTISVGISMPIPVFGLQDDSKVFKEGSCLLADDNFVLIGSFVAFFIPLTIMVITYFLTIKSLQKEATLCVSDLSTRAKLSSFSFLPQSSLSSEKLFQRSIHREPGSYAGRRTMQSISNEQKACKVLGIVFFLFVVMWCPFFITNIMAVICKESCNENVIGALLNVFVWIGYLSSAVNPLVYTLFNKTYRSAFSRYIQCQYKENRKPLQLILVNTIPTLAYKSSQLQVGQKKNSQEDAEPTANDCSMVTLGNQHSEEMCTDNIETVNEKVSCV
T2 sequence (P14842 whole entry): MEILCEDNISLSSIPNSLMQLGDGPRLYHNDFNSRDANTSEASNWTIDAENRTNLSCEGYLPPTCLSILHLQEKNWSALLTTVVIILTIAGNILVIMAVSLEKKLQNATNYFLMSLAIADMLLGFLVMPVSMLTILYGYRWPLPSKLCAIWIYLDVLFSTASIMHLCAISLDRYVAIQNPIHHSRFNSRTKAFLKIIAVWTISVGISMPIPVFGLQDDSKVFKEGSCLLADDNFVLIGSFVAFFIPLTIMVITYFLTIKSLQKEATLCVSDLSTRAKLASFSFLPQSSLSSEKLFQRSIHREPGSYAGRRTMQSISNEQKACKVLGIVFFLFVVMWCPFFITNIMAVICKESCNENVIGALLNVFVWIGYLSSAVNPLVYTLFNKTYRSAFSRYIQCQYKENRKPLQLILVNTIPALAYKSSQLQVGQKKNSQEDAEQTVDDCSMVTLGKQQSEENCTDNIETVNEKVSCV

N#Cc1c[nH]c2c(C(=O)N3CCN(CCc4ccc(F)cc4)CC3)cccc12 [pruvanserin]
head-twitch response (cumulative head-twitches) [1, 7]: completely suppressed
Result (Psilocybin Combinations tested, summary) [1, 8]: full ending
Result (Psilocybin Combinations tested, summary) ([1]; antagonist administered after psilocybin, listed as Pruvanserin): Full suppression of head twitch
head-twitch response (cumulative head-twitches) [2, 9]: completely suppressed
Result (LSD Combinations tested, summary) [2]: full suppression
Result (LSD Combinations tested, summary) ([2]; listed as Pruvanserin): Full suppression of head twitch

CCN(CC)C(=O)[C@@H]1C=C2c3cccc4[nH]cc(c34)C[C@H]2N(C)C1 [LSD]
duration of effects [3]: 12 h

OCCOCCN1CCN(C2=Nc3ccccc3Sc3ccccc32)CC1 [quetiapine]
head-twitch response [4]: completely suppressed

COc1cccc([C@H](O)C2CCN(CCc3ccc(F)cc3)CC2)c1OC [volinanserin]
head-twitch response (cumulative head-twitches) [1, 7]: completely suppressed
Result (Psilocybin Combinations tested, summary) [1, 8]: full ending
Result (Psilocybin Combinations tested, summary) ([1]; antagonist administered after psilocybin, listed as Volinanserin): Full suppression of head twitch
head-twitch response (cumulative head-twitches) ([2]; antagonist 1 mg/kg i.v. after 5 min): completely suppressed
head-twitch response (cumulative head-twitches) [2, 9]: completely suppressed
head-twitch response (cumulative head-twitches) ([2]; antagonist 1 mg/kg i.v. after 10 min): completely suppressed
Result (LSD Combinations tested, summary) [2]: full suppression

O=c1[nH]c2ccccc2n1CCN1CCN(c2cccc(C(F)(F)F)c2)CC1 [flibanserin]
head-twitch response (cumulative head-twitches) [1, 7]: partially suppressed
head-twitch response (cumulative head-twitches) [1, 10]: partially suppressed
Result (Psilocybin Combinations tested, summary) [1, 8]: partial suppression
Result (Psilocybin Combinations tested, summary) ([1]; antagonist administered after psilocybin, listed as Flibanserin): Partial suppression of head twitch
head-twitch response (cumulative head-twitches) [2, 9]: partially suppressed
head-twitch response (cumulative head-twitches) ([2]; antagonist 4 mg/kg i.v. after 8 min): partially suppressed
Result (LSD Combinations tested, summary) [2]: partial suppression
Result (LSD Combinations tested, summary) ([2]; listed as Flibanserin): Partial suppression of head twitch

O=C(c1ccc(F)cc1)C1CCN(CCn2c(=O)[nH]c3ccccc3c2=O)CC1 [ketanserin]
DOI-elicited head shakes [5]: blocked
head-twitch response (cumulative head-twitches) ([1]; antagonist 2 mg/kg i.v. after 7 min): completely suppressed
head-twitch response (cumulative head-twitches) ([2]; antagonist 2 mg/kg i.v. after 8 min): completely suppressed
DOI-elicited head-twitches [6]: blocked

Cc1nc2sccn2c(=O)c1CCN1CCC(=C(c2ccc(F)cc2)c2ccc(F)cc2)CC1 [ritanserin]
head-twitch response (cumulative head-twitches) [1, 7]: completely suppressed
Result (Psilocybin Combinations tested, summary) [1, 8]: full ending
Result (Psilocybin Combinations tested, summary) ([1]; antagonist administered after psilocybin, listed as Ritanserin): Full suppression of head twitch
head-twitch response (cumulative head-twitches) [2, 9]: partially suppressed
Result (LSD Combinations tested, summary) [2]: full suppression
Result (LSD Combinations tested, summary) ([2]; listed as Ritanserin): Full suppression of head twitch

COc1ccc(NC(=O)Nc2ccc(F)cc2F)cc1-c1c(Br)cnn1C [nelotanserin]
head-twitch response (cumulative head-twitches) [1, 7]: partially suppressed
head-twitch response (cumulative head-twitches) [1, 10]: completely suppressed; also recorded: completed suppressed
Result (Psilocybin Combinations tested, summary) [1, 8]: partial suppression
Result (Psilocybin Combinations tested, summary) ([1]; antagonist administered after psilocybin, listed as Nelotanserin): Partial suppression of head twitch,
Result (Psilocybin Combinations tested, summary) ([1]; at high dose): full suppression at high dose
head-twitch response (cumulative head-twitches) [2, 9]: partially suppressed
Result (LSD Combinations tested, summary) [2]: partial suppression
Result (LSD Combinations tested, summary) ([2]; listed as Nelotanserin): Partial suppression of head twitch
